Experimental data published in patent publication US20130273649A1, “Culture medium for pluripotent stem cells” (UNIVERSITY OF SOUTHERN CALIFORNIA, priority 2012, published 2013).

Test system: Axin1
Experiment: Western blot of Axin1 in mouse EpiSCs
Type: cell-based
Settings: CD1 mouse EpiSCs treated 12 h
Procedure: (A) TOPFlash™ assay in CD1 mouse EpiSCs treated with the indicated inhibitors for 12 hours. Data represent mean±s.d. of three biological replicates. (B) Representative phase contrast images of CD1 mouse EpiSCs cultured in the indicated conditions for 7 days. (C) Western blot analysis of CD1 mouse EpiSCs treated with the indicated inhibitors for 12 h. (D) qRT-PCR analysis of Axin1 and Axin2 mRNA levels in CD1 mouse EpiSCs stably transfected with Axin1 shRNA or Axin2 shRNA. Data represent mean±s.d. of three biological replicates. (E) Colony assay on CD1 mouse EpiSCs stably transfected with scramble, Axin1, or Axin2 shRNAs. Cells were plated onto a 6-well plate at a density of 5,000 cells/well and cultured in CHIR/IWR-1. Colonies were counted 7 days after plating. Data represent the total combined numbers of colonies from two independent experiments in which each shRNA-transfected group was cultured in one well of a 6-well plate. (F) Representative phase contrast images of CD 1 mouse EpiSCs stably transfected with the indicated shRNAs and cultured in CHIR/IWR-1 for 7 days. (G) Western blot analysis of CD1 mouse EpiSCs overexpressing Flag-tagged Axin1 or Axin2. (H) Representative phase contrast images of CD1 mouse EpiSCs overexpressing Axin1 or Axin2 and cultured in CHIR for 7 days. Axin2-overexpressing EpiSCs could be continually passaged in CHIR alone. Scale bars, 50 μm (B, F and H)
Next, we investigated the mechanism by which CHIR/XAV promotes EpiSC self-renewal. By inhibiting GSK3 phosphorylation of β-catenin, CHIR stabilizes β-catenin, which then trans-locates to the nucleus and forms complexes with DNA-binding proteins, including TCFs, to activate transcription (Logan and Nusse, 2004). […] Axin has two isoforms, Axin1 and Axin2. […] The expression level of Axin2, but not Axin1, was also elevated by CHIR treatment (FIG. 4C), an outcome consistent with previous findings that Axin2 is a direct downstream target of Wnt/β-catenin signaling (Jho et al., 2002). […]

In the case of `Cc1c[nH]c(-c2cnc(NCCNc3ccc(C#N)cn3)nc2-c2ccc(Cl)cc2Cl)n1` [CHIR99021, 6-((2-((4-(2,4-Dichlorophenyl)-5-(4-methyl-1H-imidazol-2-yl)pyrimidin-2-yl)amino)ethyl)amino)nicotinonitrile], the “amount of Axin1 protein” value is reported as “not Axin1”.
`Oc1nc(-c2ccc(C(F)(F)F)cc2)nc2c1CSCC2` [XAV939, 3,5,7,8-Tetrahydro-2-[4-(trifluoromethyl)phenyl]-4H-thiopyrano[4,3-d]pyrimidin-4-one] was tested, and the “amount of Axin1 protein” value was “significantly increased”.
